Experimental data as given in patent US12416052B2, “Capturing, concentrating, and detecting microbes in a sample using magnetic ionic liquids and recombinase polymerase amplification” (priority 2019, dated 2025).
Read-outs that look alike come from different tables or passages of the source.

Key:
[1] = system: E. amylovora Ea935; assay: MIL-based whole-cell extraction; design: species or system Erwinia amylovora; conditions: EF determined using Columbia Agar
Method: A universal schematic for MIL-based cell extraction is depicted in FIG. 7B. A 1 mL volume of diluted cell suspension was added to a flat-bottomed 4-mL screw cap glass vial. Fifteen microliters of either the Ni(II) or Dy(III) MIL was added and dispersed into microdroplets by vortex agitation for 30 s. The aqueous phase was decanted following dispersive extraction, and the MIL was subjected to a brief wash step using 1 mL of nuclease-free water (Integrated DNA Technologies, Coralville, IA, USA) to ensure adequate removal of loosely or incidentally bound cells. […]
Following back-extraction, aliquots of the cell-enriched back-extraction medium were serially diluted in 0.1% peptone water and a 10 μL aliquot of each dilution was applied to a separate lane on square plates containing an appropriate agar medium. […] Colonies were counted and colony forming units (CFU) were determined. The enrichment factor (EF) for MIL-based extraction was calculated using Equation 1, where CMIL represents the concentration of bacteria in suspension following extraction using the MIL and CS is the initial concentration of bacteria in the sample.

[2] = system: Salmonella enterica subsp. enterica ser. Typhimurium ATCC 14028; assay type: cell-based; design: key to Relative Affinity for MIL: +++++: higher losses during wash step are due to lower cellular affinity for the MIL; ++++: higher losses during wash step are due to lower cellular affinity for the MIL; +++: higher losses during wash step are due to lower cellular affinity for the MIL; ++: higher losses during wash step are due to lower cellular affinity for the MIL; +: higher losses during wash step are due to lower cellular affinity for the MIL
Method: A universal schematic for MIL-based cell extraction is depicted in FIG. 7B. A 1 mL volume of diluted cell suspension was added to a flat-bottomed 4-mL screw cap glass vial. Fifteen microliters of either the Ni(II) or Dy(III) MIL was added and dispersed into microdroplets by vortex agitation for 30 s. The aqueous phase was decanted following dispersive extraction, and the MIL was subjected to a brief wash step using 1 mL of nuclease-free water (Integrated DNA Technologies, Coralville, IA, USA) to ensure adequate removal of loosely or incidentally bound cells. After washing, release of viable cells from the MIL extraction phase was carried out using a “back-extraction” step accomplished through addition of 1 mL of an ionically-rich nutritive medium comprised of 20 g L^−1 tryptone and 10 g L^−1 NaCl, followed by a 120 s vortex step. After back-extraction, aliquots of the cell-enriched back-extraction medium were enumerated using the track dilution method using 100×100 mm square, gridded TSA, BSA, CA or VRBGA plates.
Following back-extraction, aliquots of the cell-enriched back-extraction medium were serially diluted in 0.1% peptone water and a 10 μL aliquot of each dilution was applied to a separate lane on square plates containing an appropriate agar medium. The plates were then tilted at an approximately 80° angle for 15 min to allow the droplets to travel toward the opposite end of the plate. The plates were incubated for 24 h at 37° C. (TSA, VRBGA), for 48 h at 37° C. (BSA) or for 24 h at 37° C. (CA). Colonies were counted and colony forming units (CFU) were determined. The enrichment factor (EF) for MIL-based extraction was calculated using Equation 1, where CMIL represents the concentration of bacteria in suspension following extraction using the MIL and CS is the initial concentration of bacteria in the sample.
Because culture-based methods depend on sample preparation steps that preserve bacterial viability, potential deleterious cytotoxic effects imparted by MIL extractants must be considered. To begin our further study of MIL-bacterial interactions, we selected S. typhimurium ATCC 14028 as a model gram-negative pathogen and the Ni(II) MIL as extractant.

[3] = system: Salmonella serovars; assay type: cell-based
Method: The following statistical analysis was performed in SAS 9.4. Four master suspensions of bacteria were prepared for four Salmonella enterica serovars: subsp. typhimurium, subsp. arizonae, subsp. diarizonae and subsp. houtenae. Two master suspensions were made for the remaining three Salmonella serovars or species: S. enterica subsp. indica, subsp. salamae and S. bongori. For E. coli O157:H7, two master suspensions of bacteria were prepared for each of the eight strains studied. For all bacteria tested, two replicate extractions from the same master suspension were performed, using the 10-3 dilution. Following MIL-based capture, back-extraction solutions were plated to non-selective agar (TSA) and selective agar (BSA) for Salmonella and SMAC for E. coli. To identify whether significant differences existed for the capture of Salmonella and E. coli O157:H7, we applied a linear mixed model for the response variable (enrichment factor) with log transformation in order to reduce skewness. […]
In order to explore the broader utility of our approach, evaluation of additional cell types is needed. […] We later determined that VRBGA was a suitable common medium for this purpose and used this in our statistical analysis. […] Enrichment factors were calculated for Salmonella on both non-selective (TSA) and selective agars (BSA) and for E. coli O157:H7 on non-selective agar (TSA). […]

[4] = Table 3, 1×10^5 CFU mL^−1 in TSB, 15 μL MIL
[5] = Table 4, 1×10^6 CFU mL^−1 in TSB, 15 μL MIL
[6] = average over exposure times 0-15 min (n=4)
[7] = exposure time 0 min, 1×10^5 CFU mL^−1 in TSB, 15 μL MIL

CCCCCCCCCCCCCC[P+](CCCCCC)(CCCCCC)CCCCCC.O=C([CH-]C(=O)C(F)(F)F)C(F)(F)F.O=C([CH-]C(=O)C(F)(F)F)C(F)(F)F.O=C([CH-]C(=O)C(F)(F)F)C(F)(F)F.[Ni+2] [Ni(II) MIL, [P66614^+][Ni(hfacac)3^−]]
Enrichment Factor [1]: 10
Relative Affinity for MIL [2]: ++++
enrichment factors ([2]; Example 2, 2×T, 1×NaCl back-extraction medium): approximately 12
Enrichment Factor (BSA) [2, 4]: 14
Enrichment Factor (TSA) [2, 4]: 10
Enrichment Factor (BSA) [2, 5]: 6
Enrichment Factor (TSA) [2, 5]: 8
average EF value (BSA) [2, 6]: 8.2±1.0
average EF value (TSA) [2, 6]: 7.2±0.6
Percent-Loss ([2]; cells lost to wash solution): 53 ± 3%
Enrichment Factor (BSA) [2, 7]: 7
Enrichment Factor (TSA) [2, 7]: 8
Enrichment Factor (BSA) ([2]; exposure time 5 min): 8
Enrichment Factor (TSA) ([2]; exposure time 5 min): 7
Enrichment Factor (BSA) ([2]; exposure time 10 min): 8
Enrichment Factor (TSA) ([2]; exposure time 10 min): 6
Enrichment Factor (BSA) ([2]; exposure time 15 min): 9
Enrichment Factor (TSA) ([2]; exposure time 15 min): 8
MIL-conferred injury: recovery on TSA or BSA ([3]; no statistically significant differences (p-value=0.7248)): no detectable injury
recovery on VRBGA compared with TSA ([3]; p-value=0.0004): significantly lower
